From ChEMBL document CHEMBL4823306, “Synthesis of D-π-A type benzothiazole-pyridinium salt composite and its application as photo-degradation agent for amyloid fibrils” (Bioorg Med Chem Lett, 2021)
Active and inactive are the calls of the source. The rule behind the calls is not given here.

Legend:
[1] = biological target: Amyloid-beta precursor protein (Homo sapiens) (UniProt P05067); test: Photo-degradation of Amyloid beta (1 to 42) (unknown origin) assessed as disruption of Co2 induced aggregation at 66.7 uM irradiated with UVA-LED measured after 5 mins by immunoblotting analysis
Amyloid-beta precursor protein (Homo sapiens), sequence (P05067 whole entry): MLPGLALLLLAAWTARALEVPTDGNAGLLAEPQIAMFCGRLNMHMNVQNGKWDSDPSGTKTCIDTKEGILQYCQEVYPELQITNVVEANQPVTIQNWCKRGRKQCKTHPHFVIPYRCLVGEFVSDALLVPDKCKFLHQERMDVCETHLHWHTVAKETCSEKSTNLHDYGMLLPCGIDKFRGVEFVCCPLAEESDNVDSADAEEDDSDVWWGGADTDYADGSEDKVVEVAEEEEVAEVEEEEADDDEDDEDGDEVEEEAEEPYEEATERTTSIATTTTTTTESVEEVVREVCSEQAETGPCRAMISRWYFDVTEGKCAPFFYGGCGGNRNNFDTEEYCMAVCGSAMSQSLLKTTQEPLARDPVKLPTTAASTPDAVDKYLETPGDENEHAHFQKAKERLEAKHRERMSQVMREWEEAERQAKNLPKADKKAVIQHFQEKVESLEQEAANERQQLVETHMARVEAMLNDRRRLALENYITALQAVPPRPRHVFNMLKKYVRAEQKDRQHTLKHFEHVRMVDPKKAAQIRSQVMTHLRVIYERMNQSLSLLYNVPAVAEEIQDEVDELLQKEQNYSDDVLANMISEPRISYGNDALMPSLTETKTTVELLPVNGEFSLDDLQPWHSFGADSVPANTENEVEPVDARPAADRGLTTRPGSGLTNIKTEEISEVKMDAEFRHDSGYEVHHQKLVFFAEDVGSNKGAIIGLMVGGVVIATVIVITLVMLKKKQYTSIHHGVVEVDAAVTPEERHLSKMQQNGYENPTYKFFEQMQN

HeLa [2] = test: Dark toxicity in human HeLa cells assessed as reduction in cell viability; assay type: cell-based
HeLa [3] = test: Phototoxicity in human HeLa cells assessed as reduction in cell viability irradiated with UVA-LED measured after 60 mins; assay type: cell-based; settings: 1 h
[4] = biological target: Amyloid-beta precursor protein (Homo sapiens) (UniProt P05067); test: Photo-degradation of Amyloid beta (1 to 42) (unknown origin) assessed as disruption of Co2 induced aggregation at 66.7 uM irradiated with UVA-LED for 1 hr by immunoblotting analysis

SMILES: CC[n+]1ccc(-c2ccc(-c3nc4ccccc4s3)cc2)cc1.[Br-]
- inhibition [1]: Active
- Activity (HeLa [2]): Non-Toxic
- Activity (HeLa [3]): Toxic
- inhibition [4]: Active
